From ChEMBL document CHEMBL1201862, “PubChem BioAssay data set” (2004) come the findings set out here.

By AC50 is commonly meant the midpoint of the concentration-response curve, whichever way the signal moves.

The source made the active and inactive calls. Where only a bound is given, the exact number is not on record here.

For one test, the target named is Large T antigen (Simian virus 40, UniProt P03070). Type of test: functional, Betapolyomavirus macacae.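 Note: Confirmatory-stage PubChem screen for compounds that inhibit SV40 T antigen.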
For another test, the target named is Paired box protein Pax-8 (Homo sapiens, UniProt Q06710). In words: inhibitors of PAX8-driven TPO luciferase reporter, dose response, RMG-I cells, cherry-pick (AID 687027).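 Note: luciferase reporter driven by Pax8 target thyroperoxidase promoter measured by SteadyGlo luminescence.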 It is filed as functional, cell-based. In general terms: A reporter such as luciferase makes a cellular process visible.
For a further test, the target named is T1, Streptokinase A (Streptococcus pyogenes serotype M1, UniProt P10520).
T1 sequence (P10520 whole entry): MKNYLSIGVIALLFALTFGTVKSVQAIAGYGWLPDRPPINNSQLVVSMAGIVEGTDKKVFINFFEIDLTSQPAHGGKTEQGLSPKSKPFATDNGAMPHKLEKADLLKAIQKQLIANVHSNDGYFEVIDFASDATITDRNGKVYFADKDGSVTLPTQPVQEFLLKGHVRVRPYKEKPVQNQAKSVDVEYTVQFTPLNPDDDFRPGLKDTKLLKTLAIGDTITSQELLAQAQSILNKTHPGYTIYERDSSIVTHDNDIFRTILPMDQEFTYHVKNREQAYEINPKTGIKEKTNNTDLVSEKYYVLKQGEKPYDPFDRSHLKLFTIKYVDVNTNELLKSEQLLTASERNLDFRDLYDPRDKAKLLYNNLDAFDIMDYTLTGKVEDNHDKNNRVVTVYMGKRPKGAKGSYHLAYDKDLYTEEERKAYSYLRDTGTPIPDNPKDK
In words: S. pyogenes streptokinase expression inhibitors, potency, dose response, plasminogen activation absorbance, OD405 (AID 1914).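 Note: secreted streptokinase activity via plasminogen activation per viability signal from cell pellet.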 Type of test: functional, Streptococcus pyogenes M1 GAS.

The test system of test [1] is Streptococcus sp. 'group A'. Description: growth inhibition of control SK(-) GAS strain, dose response, counter-screen for streptokinase expression inhibitor project, luminescence, kanamycin, BacTiterGlo, confirmation (AID 1900). Type of test: functional, organism-based.
In the next test the test system is Streptococcus. In words: Group A Streptococcus viability loss, dose response, counter-screen for streptokinase expression inhibitor project, luminescence, BacTiterGlo (AID 1915).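 Note: potency for reduction of bacterial viability or growth.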 It is filed as functional, organism-based.
Test [2] can be described thus: cytotoxicity toward NIH3T3 fibroblasts, dose response, counter-screen, cell-based, ATP luminescence, mouse fibroblasts (AID 2010).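 Note: cells exposed to compound for about 90 hours before reading.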 It is filed as functional. A general note: The purpose of a counterscreen is to sort out artefacts and off-target activity.
The nature of test [3]: inhibitors of intracellular T. cruzi replication, confirmation, NIH3T3 host cells, beta-gal luminescence (AID 2044).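 Note: intracellular parasites grown in NIH/3T3 mouse fibroblasts as host cells; luminescent beta-galactosidase reporter signal from transgenic T. cruzi replicating inside host cells; inhibitors lower the luminescence signal.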 Type of test: functional, cell-based.
The nature of test [4]: C. albicans growth with fluconazole, confirmation, fluorescence, retest (AID 2467). Type of test: functional, cell-based.
Test [5] is described as follows: NIH-3T3 fibroblast cytotoxicity, dose response, cytotoxicity control, cell-based, fluorescence, Alamar Blue, secondary assay (AID 2327).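 Note: NIH-3T3 mouse fibroblasts cultured with fluconazole at 8 µg/mL.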 It is filed as functional.
A short description of another test: cells. It is filed as functional.
Test [6] is described as follows: growth suppression of beta-catenin-knockout colon cells, dose response, cell-based, HCT116, human colon tumor (AID 1045).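 Note: HCT116 colon tumor cells with beta catenin knocked out; cells exposed to compound for 60 hours.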 Type of test: functional.
Test [7] is described as follows: growth suppression of PTEN-null colon cells, dose response, cell-based, HCT116 PTEN knockout (AID 1047).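 Note: HCT116 colon tumor cells with PTEN knocked out; cells exposed to compound for 60 hours before readout; potency for loss of cell viability measured by luminescence.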 It is filed as functional.
Test [8] concerns the target T2, Corticotropin-releasing factor receptor 2/Corticotropin-releasing factor-binding protein (Homo sapiens, UniProt P24387+Q13324).
T2 sequence (Q13324 whole entry): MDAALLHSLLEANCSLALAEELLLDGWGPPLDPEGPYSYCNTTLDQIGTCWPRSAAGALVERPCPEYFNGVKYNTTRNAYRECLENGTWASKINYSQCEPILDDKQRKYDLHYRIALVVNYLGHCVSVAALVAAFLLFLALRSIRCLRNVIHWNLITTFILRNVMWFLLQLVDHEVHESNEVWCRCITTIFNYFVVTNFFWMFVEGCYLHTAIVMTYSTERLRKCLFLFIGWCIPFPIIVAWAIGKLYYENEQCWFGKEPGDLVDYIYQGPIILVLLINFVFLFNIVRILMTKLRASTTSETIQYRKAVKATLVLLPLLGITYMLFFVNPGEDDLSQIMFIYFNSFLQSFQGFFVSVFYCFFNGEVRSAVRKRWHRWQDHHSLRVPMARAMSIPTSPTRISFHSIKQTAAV
T2 sequence (P24387 whole entry): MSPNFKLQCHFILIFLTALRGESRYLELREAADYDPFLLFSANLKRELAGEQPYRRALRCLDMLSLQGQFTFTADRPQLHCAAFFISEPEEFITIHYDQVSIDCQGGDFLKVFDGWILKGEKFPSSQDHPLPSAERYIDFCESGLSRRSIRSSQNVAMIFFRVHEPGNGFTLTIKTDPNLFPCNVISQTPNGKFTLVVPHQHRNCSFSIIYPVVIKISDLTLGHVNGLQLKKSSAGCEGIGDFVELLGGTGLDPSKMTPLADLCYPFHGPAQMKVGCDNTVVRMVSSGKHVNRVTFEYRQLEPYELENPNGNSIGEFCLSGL
Description: activators of CRF receptor 2 with binding protein – uHTS hits, confirmation (AID 602473). Type of test: functional. The following applies: read-out: EC50_Mean.

For test [9], the target named is T2, Corticotropin-releasing factor receptor 2/Corticotropin-releasing factor-binding protein. Description: Dose Response confirmation of uHTS hits for small molecule antagonists of the CRF-binding protein and CRF-R2 receptor complex. Type of test: functional. The following applies: read-out: IC50_Mean.
A short description of test [10]: ZM109 Env clade C HIV-1 fusion inhibitors, dose response, HeLa effector, CEM target cells, luciferase, cherry-pick (AID 652058). Type of test: functional, cell-based.
Test [11] in a line: inhibitors of HIV Env-driven cell fusion, dose response, cherry-pick (AID 652057). Type of test: functional, cell-based.

Sequence of Large T antigen (P03070 whole entry): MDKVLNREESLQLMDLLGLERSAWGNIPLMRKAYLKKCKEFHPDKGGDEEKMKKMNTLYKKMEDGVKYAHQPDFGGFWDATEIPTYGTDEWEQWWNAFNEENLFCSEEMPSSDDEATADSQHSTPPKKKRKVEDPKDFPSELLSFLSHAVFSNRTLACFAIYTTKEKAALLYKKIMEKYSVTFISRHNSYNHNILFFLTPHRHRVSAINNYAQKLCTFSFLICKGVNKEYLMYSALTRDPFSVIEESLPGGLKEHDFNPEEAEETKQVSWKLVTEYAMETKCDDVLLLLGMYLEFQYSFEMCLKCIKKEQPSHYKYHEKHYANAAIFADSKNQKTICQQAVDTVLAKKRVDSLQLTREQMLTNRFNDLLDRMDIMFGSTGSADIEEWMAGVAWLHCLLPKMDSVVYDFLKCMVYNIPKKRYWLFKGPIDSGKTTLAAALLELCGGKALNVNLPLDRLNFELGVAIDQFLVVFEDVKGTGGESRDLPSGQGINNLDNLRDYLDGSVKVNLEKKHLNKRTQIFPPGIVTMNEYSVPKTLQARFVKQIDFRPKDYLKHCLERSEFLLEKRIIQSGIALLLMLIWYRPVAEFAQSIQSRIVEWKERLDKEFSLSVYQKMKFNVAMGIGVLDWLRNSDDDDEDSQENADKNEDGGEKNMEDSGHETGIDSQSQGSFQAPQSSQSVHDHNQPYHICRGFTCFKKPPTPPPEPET
Sequence of Paired box protein Pax-8 (Q06710 whole entry): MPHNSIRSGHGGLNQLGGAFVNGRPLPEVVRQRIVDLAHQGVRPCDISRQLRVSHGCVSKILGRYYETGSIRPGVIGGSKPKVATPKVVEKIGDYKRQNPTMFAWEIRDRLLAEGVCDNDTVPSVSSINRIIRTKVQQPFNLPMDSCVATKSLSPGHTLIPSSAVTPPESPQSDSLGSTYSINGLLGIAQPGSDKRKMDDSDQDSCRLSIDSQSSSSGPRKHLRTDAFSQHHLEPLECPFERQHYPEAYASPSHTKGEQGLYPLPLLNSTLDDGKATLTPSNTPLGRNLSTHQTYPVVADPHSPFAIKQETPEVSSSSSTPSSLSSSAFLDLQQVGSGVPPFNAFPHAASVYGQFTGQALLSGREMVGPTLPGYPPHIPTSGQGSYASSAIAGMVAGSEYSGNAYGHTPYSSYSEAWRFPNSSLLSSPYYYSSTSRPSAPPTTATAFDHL

For the compound `COc1cc(CNc2ccc3c(c2)OCCO3)ccc1OCC(N)=O`, the IC50 at Large T antigen was 40 µM (active). On to `Brc1ccc(-n2cc(-c3ccccc3)c3c(NN4CCOCC4)ncnc32)cc1`, for which, on Paired box protein Pax-8, the half-maximal activity concentration (AC50) was 35.8 µM (active). `CCn1cc(Cl)c(C(=O)N2N=C(c3ccc4ccccc4c3)CC2c2ccccc2O)n1` (stereo unspecified): the EC50 at Streptokinase A is 13 µM (active); in test [1], 9.18 µM (active); in the test with Streptococcus, > 150 µM (not active); in test [2] it was > 60 µM (inconclusive); in test [3], 1.66 µM (active). `COC(=O)C1=NN(C(=O)c2ccc(Cl)cc2)C(O)(c2ccccc2)C1` (stereo unspecified): the EC50 in test [4] is > 38 µM (not active); in test [5] it was 29.9 µM (active).

As for `CCOC(=O)CNc1ccc(C(=O)OCC)cc1[N+](=O)[O-]`, in the test “cells”, the IC50 is 13.3 µM (active). `CC1CCN(c2nc(CN3CCCCC3)nc3scc(-c4ccccc4)c23)CC1`: the EC50 was 19.1 µM (inconclusive) on Streptokinase A, 16.9 µM (active) in [1] and > 150 µM (not active) in the test on Streptococcus. Consider `COc1ccccc1-c1cc(-c2ccccc2)nc(SC(C(N)=O)c2ccccc2)c1C#N` (stereo unspecified), for which the results for the EC50 in test [6] and in test [7] were 7.47 µM (active) and 5.97 µM (active), respectively. Regarding `O=C1NC(=O)C(=Cc2ccccc2OCCOc2ccc([N+](=O)[O-])cc2)C(=O)N1`, on Large T antigen, the IC50 is 55.9 µM (active).

Consider `COCC(=O)Nc1nc2n(n1)C(c1ccccc1Cl)CC(c1ccc(OC)cc1)N2` (stereo unspecified), for which the values for the EC50 in test [4] and in [5] were > 38 µM (not active) and > 160 µM (inactive), respectively. For `COc1ccc(CCn2c(C)cc(C(=O)COC(=O)c3ccc(NC(=O)CC#N)cc3)c2C)cc1`, the EC50 at Streptokinase A is > 150 µM (not active); in test [1], 61.7 µM (active); with Streptococcus, > 150 µM (not active). As to `CCOc1ccccc1NC(=O)N1CCCC(c2nc(O)c3nnn(Cc4ccc(C)cc4)c3n2)C1` (stereo unspecified), the figures for the EC50 in test [6] and in [7] were 37.4 µM (active) and 33.7 µM (active), respectively. In the same order, the values of `COc1ccc(Nc2nc(N)nc(CN3CCc4ccccc4C3)n2)cc1` are 33.2 µM (active) and 41.9 µM (active). Consider `O=C(Nc1ccc(O)cc1)c1ccc2c(c1)C(=O)N(Cc1ccco1)C2=O`, for which the IC50 on Large T antigen was 9.65 µM (active). As for `COc1ccc(CCNC(=O)c2c(N)n(CCN3CCOCC3)c3nc4ccccc4nc23)cc1`, the EC50 in test [6] was 18.4 µM (active); in [7], 13.4 µM (active).

As for `CN(C)c1ccc(NC(=O)COC(=O)CCC(=O)c2ccc(F)cc2)cc1`, the IC50 at Large T antigen is 19.2 µM (active). As for `CCOC(=O)C1CCN(c2nc3cc(OC)ccc3cc2C#N)CC1`, the IC50 is 8.59 µM (active) in “cells” and > 47.1 µM (inactive) in test [9]. In test [8], the EC50 was > 53 µM (inactive). Take `CN(C)S(=O)(=O)Oc1cccc(C(=O)Nc2ccc(Cl)cc2)c1`: the EC50 in test [4] is 1.25 µM (active); in [5], > 160 µM (inactive). With `CSc1nc2nccc(-c3ccc(-c4ccccc4)cc3)n2n1`, the EC50 was > 150 µM (not active) at Streptokinase A, 3.79 µM (active) in test [1] and 23.6 µM (active) in the test on Streptococcus. As to `COc1ccc(NC(=O)Cn2cnc3c(cnn3-c3ccc(C)c(C)c3)c2=O)c(OC)c1`, the EC50 is 27.8 µM (active) in test [6] and 29.5 µM (active) in [7]. Taken in the same sequence, the figures for `CCOc1ccccc1N=C(S)N(Cc1cc2ccc(C)cc2nc1O)CC1CCCN1CC` (stereo unspecified) were 17.4 µM (active) and 20.5 µM (active). Turning to `COCCCN1C(=O)C(O)=C(C(=O)c2ccc(OCC(C)C)cc2C)C1c1cccnc1` (stereo unspecified), the EC50 is > 38 µM (not active) in test [4] and > 150 µM (inactive) in test [5]. On to `Cc1nn2c(O)c3c(nc2c1-c1ccccc1)CCCC3`, for which the IC50 in “cells” was 11.8 µM (active).

Regarding `O=C(NC1CCCCC1)c1cc([N+](=O)[O-])n[nH]1`, the EC50 in test [4] was 1.66 µM (active); in [5], 154 µM (active). With `COCCCNC(=O)COC(=O)c1ccc(-c2nc3ccccc3s2)s1`, in “cells”, the IC50 is 10.5 µM (active).

In the case of `CC(=O)OCC1=C(C(=O)O)N2C(=O)C(NC(=O)c3ccc(F)cc3)C2SC1` (stereo unspecified), the EC50 is > 150 µM (not active) at Streptokinase A, 3.94 µM (active) in test [1] and 7.79 µM (active) with Streptococcus. For the compound `CCOC(=O)c1c(C)oc2c1c(C(c1ccccc1)N1CCOCC1)c(O)c1ccccc12` (stereo unspecified), the EC50 is 0.886 µM (active) at Streptokinase A, 3.16 µM (active) in test [1] and 5.32 µM (active) in the test on Streptococcus. As for `COc1cc(OC)cc(C(=O)NCC(=O)N2CCN(c3ccc(O)cc3)CC2)c1`, on Large T antigen, the IC50 is 65.2 µM (active). On to `c1ccc2c(Nc3nc4c(s3)CCCC4)cccc2c1`, for which the EC50 on Streptokinase A is 19.6 µM (inconclusive); in test [1], 14.4 µM (active); with Streptococcus, > 150 µM (not active).

In the case of `COc1cc(OC)cc(-c2nc3ccccc3c(=O)o2)c1`, in “cells”, the IC50 is 8.58 µM (active). On to `C[C@H]1CCCCO[C@H](CN(C)Cc2ccc(C(F)(F)F)cc2)[C@@H](C)CN([C@@H](C)CO)C(=O)c2cc(NC(=O)Nc3ccc(F)cc3)ccc2O1`, for which the concentration at half-maximal activity (AC50) at Paired box protein Pax-8 was 10.6 µM (active). As for `COc1ccc(S(=O)(=O)N[C@H]2C=C[C@H](CC(=O)N3CCN(c4ccccc4)CC3)O[C@@H]2CO)cc1`, the results for the concentration at half-maximal activity (AC50) in test [10] and in test [11] were 36.8 µM (active) and 26.7 µM (active), respectively.

Consider `C[C@H](CO)N1C[C@H](C)[C@H](CN(C)S(=O)(=O)c2cccs2)OCCCC[C@H](C)Oc2ccc(NC(=O)NC3CCCCC3)cc2C1=O`, for which the AC50 on Paired box protein Pax-8 was 10.7 µM (active). With `Cc1cccc(-c2ccc([C@H]3[C@H](CO)N4CCCCN(S(=O)(=O)c5ccccc5C)C[C@@H]34)cc2)c1`, on Paired box protein Pax-8, the AC50 is 11.4 µM (active). With `COc1ccc2[nH]c3c(=O)n(CCCCC(=O)NCCN4CCCC4)c(=S)[nH]c3c2c1`, the IC50 on Large T antigen is 10.4 µM (active). Take `CSCC[C@H](NC(=O)OC(C)(C)C)C(=O)N/N=C/c1cc2ccc(C)cc2nc1Cl`: the EC50 was 17.7 µM (active) in test [6] and 18.7 µM (active) in [7].
